# Laboratory results: patent publication US7557092B2, “Purinergic modulation of smell” (University of Utah Research Foundation, priority 2002, dated 2009)
# Several values for one entry are separate records, joined by “and”; a condition that tells them apart may be missing. Identical values can stand only once.
# Tests used:
# Type in all cases: cell-based
# [1] = tested on: cultured mouse ORNs; experiment: confocal calcium imaging of fluo-4 AM loaded cultured ORNs
# [2] = tested on: ORNs in mouse olfactory epithelium slices; experiment: confocal calcium imaging of fluo-4 AM loaded olfactory epithelium slices, ORNs; conditions: 10 μM agonist superfused onto slice
# From the text: To study the effects of ATP on odor responses, acutely prepared slices of mouse olfactory epithelium were used. Confocal imaging of fluo-4 AM-loaded olfactory epithelium slices allows simultaneous recording from identified structures within the olfactory epithelium, i.e., both ORNs and sustentacular cells. […] The difference in robustness can be due to poor access to the ATP stimulus: odorant receptors are on the cilia of the ORNs, which extend beyond the outer edge of the olfactory epithelium, whereas purinergic receptors are located deeper within the olfactory epithelium. […] The latency of activation for the ATP-evoked calcium transient was shorter in the ORN (FIG. 3B2, solid up arrowhead) than in sustentacular cells (FIG. 3B3, open down arrowhead). Collectively, this was consistent with ORNs expressing the faster P2X receptors, and the sustentacular cells expressing the slower G-protein coupled P2Y receptors.
# (§1) To prepare olfactory epithelium slices, neonatal mice (postnatal day 0-6) were quickly decapitated, and the skin and lower jaw were removed. Tissue was mounted in ice cold Ringers onto a vibratome-cutting block and 300 μm slices were made. Primary cultures of mouse ORNs were made using the same protocol and culture conditions as described for rat olfactory receptor neurons (Vargas and Lucero, 1999a). Briefly, tissue was placed in divalent cation-free Ringers containing 10 mg/ml bovine serum albumin, 1 mg/ml deoxyribonuclease II and 44 U/ml dispase, incubated at 37° C. for 45 min. The tissue was washed, triturated, and filtered through a […] mesh and […] cells were plated onto concanavalin A-coated coverslips and allowed to settle for 20 min. An additional 1.5 ml of culture medium was added (DMEM supplemented with […] ascorbic acid, 1X insulin-transferrin-seleniumX (GIBCO BRL), 2 mM glutamine, 100 U/ml penicillin G and […] streptomycin).
# [Ca^2+]i was determined using confocal imaging of fluo-4 AM (18 μM; Molecular Probes) loaded cells and slices. Cells or slices were placed in a laminar flow chamber (Warner Instruments) and perfused continuously with Ringers solution at a flow rate of 1.5-2.0 ml/min. Ringers contained (mM): 140 NaCl, 5 KCl, 1 MgCl2, 2 CaCl2, 10 HEPES, 10 glucose, […] and 400 nM tetrodotoxin. Test solutions were applied using bath exchange and a small volume loop injector (200 μl). A Zeiss LSM 510 confocal laser scanning system was used for data collection and analysis. Time series experiments were performed collecting 1400×700 pixel images at 0.2-0.4 Hz. The fluorometric signals obtained are expressed as relative fluorescence change, ΔF/F═(F−F0)/F0, where F0 is the basal fluorescence level. Increases in F greater than 10% above baseline noise were considered responses.
# [3] = tested on: odor responses of mouse ORNs in olfactory epithelium slices; experiment: co-application of odor and purinergic receptor agonist, calcium transients in olfactory epithelium slices
# [4] = tested on: cultured mouse olfactory receptor neurons (ORNs); experiment: nystatin perforated-patch voltage-clamp of cultured ORNs; conditions: 10 μM ATP
# Experimental: The physiological activation of purinergic receptors in cultured mouse ORNs (Vargas and Lucero, 1999a) were examined using both electrophysiology (Danaceau and Lucero, 1998)(FIG. 2A), and calcium imaging (FIG. 2B-E). ATP (10 μM) evoked inward currents in 39% (27/69 ORNs) of the perforated-patched mouse ORNs during brief (1-10 s) applications (FIG. 2A). […] Rapid activation of inward current that closely followed the ATP stimulus profile with little or no desensitization was also observed, indicating involvement of non-desensitizing ionotropic P2X receptors [P2X4 and/or P2X7] (Ralevic and Burnstock, 1998)(FIG. 2A, cell 2) (14/27 cells; latency=81±15 ms, Imax=−235±74 pA). These electrophysiological results support the immunohistochemical evidence of expression of both purinergic receptor subtypes in ORNs.
# as §1
# The nystatin perforated-patch technique (Horn and Marty, 1988) was used to examine cells under voltage-clamp. Electrodes (2-5 MΩ) were filled with TMA-oxide internal solution (in mM: 62.5 TMA oxide, 62.5 KH2PO4, 15 KCl, 5 MgCl2, 11 EGTA, 10 HEPES, 1 glutathione, 5 TEA, 0.03% pluronic acid F-127, 0.3% DMSO, […] nystatin, pH 7.2, 330 mOsm).
# [5] = cells with long latent period (P2Y-like), 13/27 cells
# [6] = rapidly activating cells (P2X-like), 14/27 cells
structure (smiles),measurement,setting,value
"Nc1ncnc2c1ncn2[C@@H]1O[C@H](COP(=O)(O)OP(=O)(O)OP(=O)(O)O)[C@@H](O)[C@H]1O [ATP, Adenosine 5′-triphosphate]","ATP-induced rise in [Ca2+]i in the absence of external Ca2+, larger than in the presence of Ca2+","[1]; 10 μM ATP, 0 Ca2+ + EGTA",31±11%
same,"ΔF/F increase in [Ca2+]i, average","[1]; 10 μM ATP, n=76",151±12%
same,"ΔF/F increase in [Ca2+]i, range","[1]; 10 μM ATP, n=76",13-398%
same,EC50,"[1]; Mus musculus, averaged dose-response, maximum % ΔF/F relative to 10 μM ATP, n=58, read-out: EC50 of ATP-induced [Ca2+]i increases",1600 nM
same,ORNs with rapid transient increase in [Ca2+]i,[1]; extracellularly applied ATP,76/84
same,agonist-evoked calcium transients in ORNs,[2],evoked calcium transients from all 11 ORNs
same,odor-responsive cells with a significant decrease in the summed [Ca2+]i increase,[3]; co-application of 10 μM ATP and odor (10 μM n-amyl acetate+10 μM R-carvone),62%
same,mean suppression of the summed [Ca2+]i increase,"[3]; co-application of 10 μM ATP and odor, n=26",57±5% and 57%±5%
same,mean enhancement of evoked [Ca2+]i increase,"[3]; co-application of 10 μM ATP and odor, the two ORNs with >20% increase",157±34%
same,ORNs in which ATP evoked inward currents,"[4]; brief (1-10 s) applications, perforated-patched mouse ORNs, 27/69 ORNs",39%
same,Imax,[4]; [5],−29±8 pA
same,latency of inward current,[4]; [5],1140 ± 236 ms
same,Imax,[4]; [6],−235±74 pA
same,latency of inward current,[4]; [6],81 ± 15 ms
